Measured values from patent publication US6087355A, “Cephalosporin antibiotics” (Microcide Pharmaceuticals, Inc., priority 1996, dated 2000).
Counter-ions that a name gives are not always drawn.

Assays:
Assay in all cases: In vitro MIC, agar dilution
Assay type in all cases: cell-based
[1] = tested on: S. aureus Col8A(Meth^S)(lac^-); details: S. aureus Col8A(Meth^S)(lac^-); for MIC: Staphylococcus aureus, read-out: minimum inhibitory concentration (MIC)
In short: (§1)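 Two-fold dilutions (128 to ≤0.25 μg/mL, in duplicate) were poured into Mueller-Hinton agar. Log-phase broth cultures were spot-inoculated at about 10^4 cfu per spot and incubated 35-36°C for 16-20 hours; the MIC was the lowest concentration inhibiting growth. Col is a high-level PBP2a producer; Col 8A is its isogenic PBP2a-lacking partner.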

[2] = tested on: S. aureus Col(Meth^R)(lac^-); details: for MIC: Staphylococcus aureus, read-out: minimum inhibitory concentration (MIC)
In short: as §1

[3] = tested on: S. aureus ATCC 33593(Meth^R); details: for MIC: Staphylococcus aureus, ATCC33593, read-out: minimum inhibitory concentration (MIC)
In short: (§2)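 Spots of about 10^4 cfu of log-phase culture were applied, and plates were incubated 16-20 h at 35-36 °C. MIC was the lowest concentration inhibiting growth.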

E. faecalis VanB(Van^R) = details: for MIC: Enterococcus faecalis, read-out: minimum inhibitory concentration (MIC)
In short: as §2

E. faecium VanA(Van^R) = details: for MIC: Enterococcus faecium, read-out: minimum inhibitory concentration (MIC)
In short: as §2

E. faecalis ATCC 29212 = details: for MIC: Enterococcus faecalis, ATCC29212, read-out: minimum inhibitory concentration (MIC)
In short: as §2

E. coli ATCC 25992 = details: for MIC: Escherichia coli, ATCC25992, read-out: minimum inhibitory concentration (MIC)
In short: as §2

[4] = tested on: S. aureus PC1(Meth^S)(lac^+); details: for MIC: Staphylococcus aureus, read-out: minimum inhibitory concentration (MIC)
In short: as §2

P. aeruginosa ATCC 27853 = details: for MIC: Pseudomonas aeruginosa, ATCC27853, read-out: minimum inhibitory concentration (MIC)
In short: as §2

[5] = tested on: S. aureus 76(Meth^R)(lac^+); details: for MIC: Staphylococcus aureus, read-out: minimum inhibitory concentration (MIC)
In short: as §2

[6] = tested on: S. aureus Spain #356(Meth^R); details: for MIC: Staphylococcus aureus, read-out: minimum inhibitory concentration (MIC)
In short: as §2

[7] = tested on: S. aureus ATCC 13709(Meth^S); details: for MIC: Staphylococcus aureus, ATCC13709, S. aureus ATCC 13709(Meth^S), read-out: minimum inhibitory concentration (MIC); for minimum inhibitory concentration (MIC): S. aureus ATCC 13709(Meth^S)
In short: as §2

[8] = tested on: S. haemolyticus 05(Meth^R); details: for MIC: Staphylococcus haemolyticus, read-out: minimum inhibitory concentration (MIC)
In short: as §2

E. faecium A491(Amp^R) = details: for MIC: Enterococcus faecium, read-out: minimum inhibitory concentration (MIC)
In short: as §2

S. aureus ATCC 29213 = details: for MIC: Staphylococcus aureus, ATCC29213, read-out: minimum inhibitory concentration (MIC)
In short: as §2

E. faecium ATCC 35667 = details: for MIC: Enterococcus faecium, ATCC35667, read-out: minimum inhibitory concentration (MIC)
In short: as §2

SMILES | MIC [1] [µg/mL] | MIC [2] [µg/mL] | MIC [3] [µg/mL] | MIC (E. faecalis VanB(Van^R)) [µg/mL] | MIC (E. faecium VanA(Van^R)) [µg/mL] | MIC (E. faecalis ATCC 29212) [µg/mL] | MIC (E. coli ATCC 25992) [µg/mL] | MIC [4] [µg/mL] | MIC (P. aeruginosa ATCC 27853) [µg/mL] | MIC [5] [µg/mL] | MIC [6] [µg/mL] | MIC [7] [µg/mL] | MIC [8] [µg/mL] | MIC (E. faecium A491(Amp^R)) [µg/mL] | MIC (S. aureus ATCC 29213) [µg/mL] | MIC (E. faecium ATCC 35667) [µg/mL] | other results
N=C(N)SCc1ncsc1SC1=C(C(=O)O)N2C(=O)[C@@H](NC(=O)/C(=N\O)c3csc(N)n3)[C@H]2SC1 [Cmpd 7, (7R)-7-[(Z)-2-(aminothiazol-4-yl)-2-(hydroxyimino)acetamido]-3-(4-isothioureidomethylthiazol-5-ylthio)-3-cephem-4-carboxylate, trifluoroacetic acid salt] | 0.5 | 8 | 8 | 2 | 16 | 1 | 4 | 2 | > 32 | 8 | 8 | 0.5 | 32 | > 32 | 0.5 | 4 | 
NCCSCc1cnccc1SC1=C(C(=O)O)N2C(=O)[C@@H](NC(=O)Cc3ccccc3)[C@H]2SC1.O=C(O)C(F)(F)F [Cmpd 9, (7R)-7-[(phenylacetyl)amino]-3-(3-aminoethylthiomethylpyrid-4-ylthio)-3-cephem-4-carboxylate, trifluoroacetic acid salt] | 0.13 | 1 | 4 | 2 | 4 | 1 | > 32 | 1 | > 32 | 4 | 4 | ≤ 0.06 | 16 | > 32 | 0.25 | 1 | 
NCCSCc1cnccc1SC1=C(C(=O)O)N2C(=O)[C@@H](NC(=O)/C(=N\O)c3nc(N)sc3Br)[C@H]2SC1.O=C(O)C(F)(F)F [Cmpd 21, (7R)-7-[(Z)-2-(2-amino-5-bromothiazol-4-yl)-2-(hydroxyimino)acetamido]-3-(3-aminoethylthiomethylpyrid-4-ylthio)-3-cephem-4-carboxylate, trifluoroacetic acid salt] | 0.25 | 1 | 1 | 0.13 | 1 | 0.13 | 32 | 0.5 | > 32 | 1 | 1 | 1 | 2 | 8 | 0.25 | 0.5 | 
CNCCNCCSCc1nnsc1SC1=C(C(=O)O)N2C(=O)[C@@H](NC(=O)/C(=N\O)c3nc(N)sc3Cl)[C@H]2SC1.O=C(O)C(F)(F)F [Cmpd 22, (7R)-7-[(Z)-2-(2-amino-5-chlorothiazol-4-yl)-2-(hydroxyimino)acetamido]-3-[(methylaminoethylaminoethylthiomethyl)-1,2,3-thiadiazol-5-ylthio]-3-cephem-4-carboxylate, trifluoroacetic acid salt] |  |  |  |  |  |  |  |  |  |  |  |  |  |  |  |  | minimum inhibitory concentration (MIC) [1]: 0.5 µg/mL; minimum inhibitory concentration (MIC) [2]: 2 µg/mL; minimum inhibitory concentration (MIC) [3]: 2 µg/mL; minimum inhibitory concentration (MIC) (E. faecalis VanB(Van^R)): 0.5 µg/mL; minimum inhibitory concentration (MIC) (E. faecium VanA(Van^R)): 2 µg/mL; minimum inhibitory concentration (MIC) (E. faecalis ATCC 29212): 0.13 µg/mL; minimum inhibitory concentration (MIC) (E. coli ATCC 25992): 8 µg/mL; minimum inhibitory concentration (MIC) [4]: 1 µg/mL; minimum inhibitory concentration (MIC) (P. aeruginosa ATCC 27853): > 32 µg/mL; minimum inhibitory concentration (MIC) [5]: 2 µg/mL; minimum inhibitory concentration (MIC) [6]: 2 µg/mL; minimum inhibitory concentration (MIC) [7]: 1 µg/mL; minimum inhibitory concentration (MIC) [8]: 2 µg/mL; minimum inhibitory concentration (MIC) (E. faecium A491(Amp^R)): 16 µg/mL; minimum inhibitory concentration (MIC) (S. aureus ATCC 29213): 0.25 µg/mL; minimum inhibitory concentration (MIC) (E. faecium ATCC 35667): 1 µg/mL
N=CNCCSCc1cnccc1SC1=C(C(=O)O)N2C(=O)[C@@H](NC(=O)/C(=N\O)c3csc(N)n3)[C@H]2SC1.O=C(O)C(F)(F)F [Cmpd 25, (7R)-7-[(Z)-2-(aminothiazol-4-yl)-2-(hydroxyimino)acetamido]-3-(3-(N-formamidoyl)aminoethylthiomethylpyrid-4-ylthio)-3-cephem-4-carboxylate, trifluoroacetic acid salt] |  |  |  |  |  |  |  |  |  |  |  |  |  |  |  |  | minimum inhibitory concentration (MIC) [1]: 0.25 µg/mL; minimum inhibitory concentration (MIC) [2]: 1 µg/mL; minimum inhibitory concentration (MIC) [3]: 1 µg/mL; minimum inhibitory concentration (MIC) (E. faecalis VanB(Van^R)): 0.13 µg/mL; minimum inhibitory concentration (MIC) (E. faecium VanA(Van^R)): 2 µg/mL; minimum inhibitory concentration (MIC) (E. faecalis ATCC 29212): 0.13 µg/mL; minimum inhibitory concentration (MIC) (E. coli ATCC 25992): 4 µg/mL; minimum inhibitory concentration (MIC) [4]: 0.25 µg/mL; minimum inhibitory concentration (MIC) (P. aeruginosa ATCC 27853): > 32 µg/mL; minimum inhibitory concentration (MIC) [5]: 2 µg/mL; minimum inhibitory concentration (MIC) [6]: 2 µg/mL; minimum inhibitory concentration (MIC) [7]: 0.25 µg/mL; minimum inhibitory concentration (MIC) [8]: 2 µg/mL; minimum inhibitory concentration (MIC) (E. faecium A491(Amp^R)): 32 µg/mL; minimum inhibitory concentration (MIC) (S. aureus ATCC 29213): 0.25 µg/mL; minimum inhibitory concentration (MIC) (E. faecium ATCC 35667): 1 µg/mL
N=CNCCCSCc1cnccc1SC1=C(C(=O)O)N2C(=O)[C@@H](NC(=O)/C(=N\O)c3nc(N)sc3Cl)[C@H]2SC1 [Cmpd 34, (7R)-7-[(Z)-2-(2-amino-5-chlorothiazol-4-yl)-2-(hydroxyimino)acetamido]-3-(3-(3-N-formamidoylaminopropylthiomethyl)pyrid-4-ylthio)-3-cephem-4-carboxylate, trifluoroacetic acid salt] | ≤ 0.06 | 1 | 1 | ≤ 0.06 | 0.5 | ≤ 0.06 | 4 | 0.13 | > 32 | 1 | 1 | ≤ 0.06 | 2 | 4 | ≤ 0.06 | 0.25 | 
NCC(=O)NCCCSCc1cnccc1SC1=C(C(=O)O)N2C(=O)[C@@H](NC(=O)/C(=N\O)c3nc(N)sc3Cl)[C@H]2SC1 [Cmpd 35, (7R)-7-[(Z)-2-(2-amino-5-chlorothiazol-4-yl)-2-(hydroxyimino)acetamido]-3-[3-(glycyl)aminopropylthiomethylpyrid-4-ylthio]-3-cephem-4-carboxylate, trifluoroacetic acid salt] | 0.25 | 2 | 2 | 0.25 | 0.5 | ≤ 0.06 | 8 | 0.5 | > 32 | 2 | 2 | 0.25 | 4 | 4 | 0.25 | 0.25 | 
NCCSCc1nnsc1SC1=C(C(=O)O)N2C(=O)[C@@H](NC(=O)Cc3ccccc3)[C@H]2SC1.O=C(O)C(F)(F)F [Cmpd 37, (7R)-7-[(phenylacetyl)amino]-3-(4-(2-aminoethylthiomethyl)-1,2,3-thiadiazol-5-ylthio)-3-cephem-4-carboxylate, trifluoroacetic acid salt] | ≤ 0.06 | 0.5 | 16 | 0.5 | 2 | 0.25 | > 32 | 1 | > 32 | 4 | 8 | ≤ 0.06 | 8 | > 32 | 0.5 | 0.5 | 
NCCSCc1nnsc1SC1=C(C(=O)O)N2C(=O)[C@@H](NC(=O)/C(=N\O)c3csc(N)n3)[C@H]2SC1 [Cmpd 38, (7R)-7-[(Z)-2-(aminothiazol-4-yl)-2-(hydroxyimino)acetamido]-3-(4-(2-aminoethylthiomethyl)-1,2,3-thiadiazol-5-ylthio)-3-cephem-4-carboxylate, trifluoroacetic acid salt] | 0.13 | 1 | 1 | 0.13 | 2 | 0.13 | 2 | 0.25 | > 32 | 1 | 1 | 0.13 | 2 | > 32 | 0.13 | 1 | 
